The text below walks through data of patent US20260345605A1, “THERAPEUTIC AGENTS FOR HEART FAILURE” (Ottawa Hospital Research Institute, priority 2023, published 2026).

Data set [1] relates to iPS cell-derived cardiomyocytes (iCell Cardiomyocytes). In words: Secondary screening: morphometric analysis of iCell Cardiomyocytes. It is filed as cell-based, human. To be noted: for Mean Cardiomyocyte Length: iCell Cardiomyocyte, UT 213.01323. The text has this: A library of 800 small molecule compounds that can stimulate favorable cardiac adaptation in primary neonatal rat ventricular myocytes (NRVM) was screened. To identify the beneficial modifiers of hypertrophy, the Cellomics Arrayscan High Throughput Screening platform was employed to quantify morphometric features such as, for example, length, width, and length to width ratio from images acquired using a 10× lens for DAPI-labeled nuclei and CY3 labeled α actinin stained cardiomyocytes in a 96 well format. The lead compound was also screened in iPSC derived cardiomyocytes as a part of secondary screening as it offers a physiologically relevant human cell-based model.
(§1) A secondary screening was performed with 10 drugs identified from primary screening for their ability to induce physiological remodeling using morphometric analysis and measuring the levels of B-type natriuretic peptide (BNP), as a surrogate indicator of the hypertrophic response using ELISA. The compounds were selected based on the highly enriched targets identified in the drug set enrichment analysis with a high Z score. Cryopreserved iPS cell-derived cardiomyocytes (“iCell Cardiomyocytes”) obtained from Cellular Dynamics International (CDI, Madison, WI) were used as a cell model to perform the screening.
The cells were plated at a density of 2.5×10^4 cells onto 25 mm diameter fibronectin coated glass coverslips in plating media for 48 hours. The media was replaced with Supplemented William's E (SWE) medium (SWE) media supplemented with cocktail containing penicillin-streptomycin, ITS+(insulin, transferrin, selenium complex, BSA, and linoleic acid), GlutaMAX™, and HEPES (Primary Hepatocyte Maintenance Supplements-GIBCO) for 48 hours. The cells were treated with controls (CT1-40 ng/mL, PE-100 uM) and drugs (AZD1152-HQPA, LY283519) at varying concentrations (2.5, 1, 0.5, and 0.25 uM) for 24 hours.
Post treatments, the cells were washed, fixed and treated with primary antibody, secondary antibody similar to the protocol of Example 3. The effect on the morphometric parameters was assessed using Cellomics Arrayscan Vti HCS reader. The Image acquisition was performed using the Zeiss AxioVision SE64 Imaging software and analyzed using the ImageJ2 software.
iCell cardiomyocytes were seeded at a density of 10,000 cells per well in a 96 well plate format. The cells were maintained as in Example 3 and were treated with controls (hCT1, PE) and drugs (AZD1152-HQPA, LY283519) at four different concentrations for 24 hours. The cells were then fixed and stained with a Actinin for cardiomyocytes followed by nuclear staining with DAPI. The plates were analyzed in Cellomics Arrayscan Vti HCS reader to assess morphometric changes following treatment.

Data set [2] deals with NT Pro-BNP (iCell Cardiomyocyte). In words: NT Pro-BNP ELISA in iCell Cardiomyocyte supernatants. The format is cell-based, human. To be noted: 24 hour; for Mean NT Pro-BNP levels: iCell Cardiomyocyte, UT 2407.521. As for the experimental part:
as §1
Pro-NT BNP levels in the culture media were measured following the 24 hour treatment using the Human NT Pro-BNP DuoSet ELISA kit (R&D Systems, Minnesota USA) as per the manufacturer's instruction. […] The plates were read on BMG BioTek Molecular Devices SpectraMax Microplate Reader at 450 nm to obtain the optical density followed by reading at 540 nm for wavelength correction.
Protein levels were identified by plotting a 4 parametric logistic regression curve using the standards provided with the kit.
(An ELISA detects its analyte on a solid surface through an enzyme-linked reagent.)

Data set [3] deals with aurora kinase B. In words: pAurkB S727 immunofluorescence and remodeling in NRVM. The format is cell-based, neonatal rat. Here is the method:
Immunofluorescence was performed to validate and assess the effect of aurora B kinase inhibitor on cardiomyocyte remodeling. NRVMs were plated at a density of 2.5×10^4 cells onto 25 mm diameter collagen coated coverslip. Primary cardiomyocytes were incubated with control serum-free medium (Ctrl, SF medium), hCT1 (0.5 nM), PE (100 μM), AZD1152-HQPA (1.5 μM) and assessed for aurora kinase B activation using pAurkB s727 antibody staining. The cells were treated with a combination of PE and AZD1152 HQPA where the cells were stimulated with the drug for 4 hours following the PE treatment for 24 hours.
Post treatment, the cells were washed, fixed, and were subjected to sequential staining of primary antibodies a Actinin and phospho-AurkB (S727). The images were acquired using the Zeiss AxioVision SE64 Imaging software and analyzed using the ImageJ2 software. Immunofluorescence was used to detect α-actinin, pAurkb S727, and nuclei were stained with DAPI.

For data set [4], the system named is phospho-Histone 3 (Ser10). In words: phospho-Histone 3 (pH3 Ser10) staining in NRVM. The format is cell-based, neonatal rat. Here is the method: A one-way ANOVA test performed to assess statistical significance across treatment groups.
The effect of AZD1152-HQPA on cardiac remodeling was further validated using the phospho-Histone 3 (pH3 Ser10) staining which is the downstream target of aurora kinase B. The NRVMs were plated at a density of 2.5×10^4 cells onto 25 mm diameter collagen coated coverslip. The cells were treated with controls (hCT1, PE), AZD1152-HQPA followed by a combination of PE and AZD1152-HQPA.
Post treatment, the cells were washed, fixed, and were subjected to sequential staining of primary antibodies a Actinin and phospho-Histone 3 (Ser10). The images were acquired using the Zeiss AxioVision SE64 Imaging software and analyzed using the ImageJ software. […] The data are represented as Mean±Standard deviation.

For data set [5], the system named is cardiomyocytes. In words: Overall observation on remodeling of treated cardiomyocytes. The format is cell-based.
For data set [6], the system named is Aurora B. The conditions noted are these: role: inhibitor; cited from earlier work.
The conditions of data set [7]: cited from earlier work.
Data set [8] has as its system DOX-induced cardiomyocyte apoptosis and ventricular dysfunction. To be noted: cited from earlier work.
Data set [9] deals with streptozotocin (STZ)-induced cardiac dysfunction. To be noted: animal model of diabetic cardiomyopathy; cited from earlier work.
Data set [10] concerns CDK4/6. To be noted: role: inhibitor; cited from earlier work.
Data set [11] relates to CDK2. The conditions noted are these: role: inhibitor; cited from earlier work.

Consider `CCN(CCO)CCCOc1ccc2c(Nc3cc(CC(=O)Nc4cccc(F)c4)[nH]n3)ncnc2c1` [AZD1152-HQPA, AZD1152-hydroxyquinazoline pyrazol anilide], for which the Mean Cardiomyocyte Length came out at 236 µm in data set [1] (drug 0.25 μm, 24 hours); 232 µm in [1] (drug 0.5 μm, 24 hours); 218 µm in data set [1] (drug 1 μm, 24 hours); 223 µm in data set [1] (drug 2.5 μm, 24 hours). Further, in data set [1] (iCell cardiomyocyte, 1 uM, FIG. 4A), the Eccentric cardiac remodeling entry is “Eccentric cardiac remodeling was observed”. For the same compound, the “cardiomyocyte length compared with CT1 treated cells” value in data set [1] (iCell cardiomyocytes on coverslips, 24 hours) was “comparable cardiomyocyte length”. Further, the “length in iCell cardiomyocyte compared to hCT1” value in [1] (iCell cardiomyocytes, 96 well, four concentrations, 24 hours) is on record as “increased length in iCell cardiomyocyte comparable to length induced by hCT1”. In addition, the “Mean NT Pro-BNP levels” value in data set [2] (drug 0.25 μm) is given as 2100.945 pg/mL; in data set [2] (drug 0.5 μm), 1588.366 pg/mL; in data set [2] (drug 1 μm), 2023.151 pg/mL; in data set [2] (drug 2.5 μm) it was 2085.823 pg/mL. Further, the “Pro-NT BNP levels compared to UT and CT1 treated cells” value in data set [2] (iCell cardiomyocytes) is “comparable and/or reduced BNP levels”. The “aurora kinase b activation” value in [3] (AZD1152-HQPA 1.5 μM) is “inhibited aurora kinase b activation”. In [3] (drug for 4 hours following PE treatment for 24 hours), the “pathological effect of PE” value is listed as “able to reverse the pathological effect of PE”. The pH3 activity entry in data set [4] (AZD1152-HQPA alone) and in [4] (AZD1152-HQPA in combination with PE treatment) was “reduced pH3 activity” each time. Further, the cardiomyocyte remodeling entry in [5] is “adaptive and compensatory remodeling that resembles a physiologic growth response, adding sarcomeres in series”. Moreover, the “Aurora B inhibition” value in [6] was “strong and selective inhibitor of Aurora B”. In [7], the “conversion to the active AZD1152-HQPA in plasma” value is “converted rapidly”.

Turning to `COc1cccc2c1C(=O)c1c(O)c3c(c(O)c1C2=O)C[C@@](O)(C(=O)CO)C[C@@H]3O[C@H]1C[C@H](N)[C@H](O)[C@H](C)O1` [DOX, doxorubicin], the “DOX-induced effect on heart” value in [8] (CDK2 activation as mechanism) is “cardiomyocyte apoptosis and ventricular dysfunction”.

With `CC(=O)c1c(C)c2cnc(Nc3ccc(N4CCNCC4)cn3)nc2n(C2CCCC2)c1=O` [Palbociclib], in data set [9], the “effect on streptozotocin (STZ)-induced cardiac dysfunction” value is “inhibiting streptozotocin (STZ)-induced cardiac dysfunction by attenuating maladaptive cardiac remodeling”. Moreover, the CDK4/6 inhibition result in data set [10] was “CDK4/6 inhibitor”.

In the case of `CC[C@H](CO)Nc1nc(NCc2ccccc2)c2ncn(C(C)C)c2n1` [Roscovitine], the “cardioprotective effect against DOX” value in data set [8] (DOX-associated contractile dysfunction and ventricular remodeling) was “attenuating myocytes from DOX-associated contractile dysfunction and ventricular remodeling”. For the same compound, the CDK2 inhibition result in [11] is “CDK2 inhibitor”.
